From patent publication US6406679B1, “Use of HL-60-related lectins in drug delivery and detection of lectin-expressing cells” (Incyte Pharmaceuticals, Inc., priority 1992, dated 2002)

What was measured:
[1] = test system: human T-cells of the Jurkat line; experiment: Agglutination of cells treated with lectin; format: cell-based; conditions: 250 μg/ml lectin, on ice 30 min
Protocol: (§1) To analyze the mechanism of action of the inventive lectins as immunomodulators, a test was devised to discover whether these lectins bind lymphocytes and/or T-cells to endothelial cells. Thin sections of tissue containing inflamed rat brain vascular endothelium were prepared. Rat lymph node lymphocytes and human T-cells of the Jurkat line (10^7/ml in Dulbecco's modified Eagle medium (MEM) with 5% fetal bovine serum (FBS)) were treated with 250 μg/ml of the lectin of Example 1, with the lectin plus 1 mM beta-lactose, or with no additions and subsequently were placed on ice for 30 min. […] These effects were not observed when beta-lactose was added or when there were no additions.

[2] = test system: Rat lymph node lymphocytes; experiment: Agglutination of cells treated with lectin; format: cell-based; conditions: 250 μg/ml lectin, on ice 30 min
Protocol: as §1

SJL/J mice = experiment: EAE relapse murine model; format: in vivo, mouse; conditions: 50 μg i.v. days 13 and 15, 100 μg i.v. daily days 18-24, FIG. 13
Description: In mice, symptoms of EAE can be made to occur in cyclical fashion by boosting the animals with antigen following each cycle, and each cycle becomes more severe until death ultimately occurs. This is a useful model in which to determine therapeutic efficacy, since it closely mimics both the chronic disease relapses and the acute demyelination associated with multiple sclerosis. In this experiment, 20 female SJL/J mice were immunized with lyophilized spinal cord extract dissolved in PBS plus CFA on days 0, 7 and 21. Ten mice were injected with recombinant lectin, and ten mice were given buffer only. The lectin-treated mice received 50 μg lectin on days 13 and 15 intravenously in the tail vein, and an additional 100 μg i.v. daily from day 18 through day 24. Mice were followed until death or sacrifice at day 42.
The results in FIG. 13 are mean clinical scores for control and lectin-treated mice.

Substance: Lectin: Soluble 14 kD β-galactoside-binding HL-60/placenta lectin of FIG. 1 (SEQ ID NO:2), prepared recombinantly in E. coli
- Agglutination of T-cells [1]: severely agglutinated
- Clumping of rat lymphocytes [2]: moderately clumped
- mean clinical scores, first cycle (SJL/J mice): improved clinical scores
- survival and clinical scores, second cycle (SJL/J mice): improved survival and clinical scores
